Data from patent publication US20200216906A1, “METHODS AND COMPOSITIONS RELATING TO THE DIAGNOSIS AND TREATMENT OF CANCER” (PRESIDENT AND FELLOWS OF HARVARD COLLEGE, priority 2015, published 2020).
Entries after “also recorded” stand apart in the source; their conditions may differ. Read-outs that look alike come from different tables or passages of the source. Starred links: 1 amine or outer side, 2 acyl side, 3 side chain; linkers in the order of their positions; H or OH if unused. Positions of bridges follow the written chain, without caps; N, C: chain ends. Non-standard residues stand in square brackets, D forms with d. Residues, ends and D or L forms follow the SMILES beside them. Chains are numbered I, II in the order given. Actinocin(9to1) = Cc1c2oc3c(C)ccc(C(=O)[*:1])c3nc-2c(C(=O)[*:2])c(N)c1=O; NMeV = CN[C@H](C(=O)O)C(C)C; Sar = CNCC(=O)O

Assays:
[1] = tested on: Panc02.13 cells expressing the YAPS6A mutant; test: 3D spheroid growth assay, Panc02.13 cells expressing YAPS6A; assay type: cell-based, human; details: YAP activity increased
[2] = tested on: Panc02.13 cells expressing YAPS6A construct; test: Kinetic cell growth assay, Panc02.13 cells expressing YAPS6A; assay type: cell-based, human; details: for EC50: YAPS6A construct
Description: (§1) Panc02.13 cells were used to express YAPS6A (or vector controls) under sparse and dense cultures. Expression was confirmed by confocal microscopy (data not shown). Suppression of the Hippo pathway by expression of non-phospho, active form of YAP (YAPS6A) sensitized pancreatic cancer cells to gemcitabine and 5-FU (FIGS. 6 and 7). Apoptosis was measured by immunobloting with cleaved caspases 3/7 or PARP. Blots were also stained with anti-β-actin for loading control. The effect of Hippo pathway suppression on gemcitabine and 5-FU senstitization was maintained in 3D spheroid culture (FIG. 8). The effects of eleven cytotoxic drugs on the growth of Panc02.13 cells expressing vector only or YAPS6A construct grown under low or high densities were determined (Table 1).
(§2) The effect of gemcitabine on pancreatic cancer cell growth was studied using a kinetic cell growth assay. Pancreatic cancer cells were plated on 96-well plates (Essen ImageLock, Essen Instruments, MI, US) at varying densities (2-4×10^3 for low density or 15-20×10^3 for high density experiments). Small molecule inhibitors at different doses were added 24 hours after plating and cell confluence was monitored with Incucyte Live-Cell Imaging System and software (Essen Instruments). Confluence was observed every hour for 48-144h or until the control (DMSO only) samples reached 100% confluence.
Cell lines (Panc02.13, Panc10.05 or Miapaca2) were transfected with YAPS6A constructs (Addgene) using Lipofectamine™ (Invitrogen, Carlsbad, Calif.) following the manufacturer's instructions and 48 hour post-transfection selected in 5-10 μg/ml Blasticidin (InvivoGen, San Diego, Calif.). The clones screened for YAPS6A expression by Western blot. Stable cell lines were maintained in complete medium and 5 μg/ml Blasticidin.
as §2, with “Kinetic Cell growth assay. The” for “The”, “(2-4X103” for “(2-4×10^3”, “15-20X103” for “15-20×10^3”, “Incucyte™” for “Incucyte”

[3] = tested on: Panc02.13 cells expressing vector only (02.13-WT); test: Kinetic cell growth assay, Panc02.13 cells expressing vector only; assay type: cell-based, human
Description: as §1, §2
as §2, with “Kinetic Cell growth assay. The” for “The”, “(2-4X103” for “(2-4×10^3”, “15-20X103” for “15-20×10^3”, “Incucyte™” for “Incucyte”

[4] = tested on: pancreatic cancer cell lines; test: Kinetic cell growth assay, panel of pancreatic cancer cell lines; assay type: cell-based, human; details: for Dependence of cellular response on cell crowding: seven PDAC cell lines, threshold >100 fold difference in EC50; for Density dependence of efficacy: seven pancreatic cancer cell lines, sparse and dense conditions
Description: as §2
FIG. 20A illustrates the kinetic cell growth assay to determine the effect of gemcitabine in a panel of pancreatic cancer cell lines. Cells are plated at low crowding conditions (10-25% confluence) and 24 hours later exposed to gemcitabine in a dose-dependent manner. They are imaged every 1-3 hours until control (vehicle) treated cells reach 100% confluence. This assay is not confounded by the fact that the time required for each cell line to reach 100% confluence may be very different (as the cell lines have different doubling times). A dose response effect of gemcitabine on cell growth for 16 pancreatic cancer cell lines is shown in FIGS. 20B, 3, 31A-31C and 28, where the range of previous studies is also shown. […] Similar responses to gemcitabine were found in liver cancer cell lines (Huh7 and FOCUS) and untransformed (HEK293) cell lines (FIGS. 3, 31A-31C).
as §2, with “Kinetic Cell growth assay. The” for “The”, “(2-4X103” for “(2-4×10^3”, “15-20X103” for “15-20×10^3”, “Incucyte™” for “Incucyte”

Panc02.13 cells = test: 3D spheroid growth assay, Panc02.13 (GFP/parental) cells; details: for Efficacy in inhibiting cell growth when the Hippo pathway was not inhibited: Hippo-YAP pathway active; for Inhibition in high density growth conditions: 3D-spheroid screen
Description: Cancer cell lines were seeded at a 5×10^3 cells per well in a 96-well ultra-low adherence plates (Costar) and briefly spun down at 1000 rpm for 5 minutes. After 2 days, cells were treated with small molecule inhibitors at varying concentrations. Growth of spheroids was monitored using live cell imaging every 2-3 hours for 4-7 days in the Incucyte FLR™ system (Essen) or as end point assay using CellTiter-Glo™ luminescent cell viability assay (Promega).
A dose response curve for each inhibitor is calculated based on control (no inhibitor/DMSO) treated wells.
Cancer cell lines were seeded at a 5×10^3 cells per well in a 96-well ultra-low adherence plates (Costar) and briefly spun down at 1000 rpm for 5 minutes. After 2 days, cells were treated with small molecule inhibitors at varying concentrations. Growth of spheroids was monitored using live cell imaging every 2-3 hours for 4-7 days in the Incucyte ZOOM™ system (Essen) or as end point assay using CellTiter-Glo™ luminescent cell viability assay (Promega).

[5] = Homo sapiens, high density, read-out: High density (EC50, nM) 02.13-YAPS6A
[6] = Homo sapiens, low density, read-out: Low density (EC50, nM) 02.13-YAPS6A
[7] = Homo sapiens, high density, read-out: High density (EC50, nM) 02.13-WT
[8] = Homo sapiens, low density, read-out: Low density (EC50, nM) 02.13-WT
[9] = high density, read-out: High density (EC50, nM) 02.13-YAPS6A
[10] = low density, read-out: Low density (EC50, nM) 02.13-YAPS6A
[11] = high density, read-out: High density (EC50, nM) 02.13-WT
[12] = low density, read-out: Low density (EC50, nM) 02.13-WT

Molecule: S=c1nc[nH]c2nc[nH]c12 [mercaptopurine]
- Efficacy in inhibiting cell growth when the Hippo pathway was inhibited [1]: increased efficacy in inhibiting cell growth

Molecule: CO[C@@]12[C@H](COC(N)=O)C3=C(C(=O)C(C)=C(N)C3=O)N1C[C@@H]1N[C@@H]12 [mitomycin]
- Efficacy in inhibiting cell growth when the Hippo pathway was inhibited [1]: increased efficacy in inhibiting cell growth

Molecule: CC(=O)O[C@@]12CO[C@@H]1C[C@H](O)[C@@]1(C)C(=O)[C@H](O)C3=C(C)[C@@H](OC(=O)[C@H](O)[C@@H](NC(=O)OC(C)(C)C)c4ccccc4)C[C@@](O)([C@@H](OC(=O)c4ccccc4)[C@H]21)C3(C)C [Docetaxel]
- EC50 [2, 5]: 4820 nM
- EC50 [2, 6]: 7 nM
- EC50 [3, 7]: 2400 nM
- EC50 [3, 8]: 3.5 nM
- Dependence of cellular response on cell crowding [4]: weak or no correlation with cell density
- Density dependence of efficacy [4]: largely density independent

Molecule: Nc1nc(Cl)nc2c1ncn2[C@@H]1O[C@H](CO)[C@@H](O)[C@@H]1F [clofarabine]
- Efficacy in inhibiting cell growth when the Hippo pathway was inhibited [1]: increased efficacy in inhibiting cell growth

Molecule: CO[C@H]1C[C@@H]2CC[C@@H](C)[C@@](O)(O2)C(=O)C(=O)N2CCCC[C@H]2C(=O)O[C@H]([C@H](C)C[C@@H]2CC[C@@H](OCCO)[C@H](OC)C2)CC(=O)[C@H](C)/C=C(\C)[C@@H](O)[C@@H](OC)C(=O)[C@H](C)C[C@H](C)/C=C/C=C/C=C/1C [Everolimus]
- Efficacy in inhibiting cell growth when the Hippo pathway was not inhibited (Panc02.13 cells): demonstrated efficacy at higher doses

Molecule: CC(C)C[C@H](NC(=O)[C@H](Cc1ccccc1)NC(=O)c1cnccn1)B(O)O [bortezomib]
- Efficacy in inhibiting cell growth when the Hippo pathway was not inhibited (Panc02.13 cells): effective in preventing cancer cell growth independent of the state of Hippo-YAP signaling pathway activity; also recorded: efficacious in inhibiting cell growth

Molecule: Nc1ccn([C@@H]2O[C@H](CO)[C@@H](O)[C@@H]2O)c(=O)n1 [cytarabine]
- Efficacy in inhibiting cell growth when the Hippo pathway was inhibited [1]: increased efficacy in inhibiting cell growth

Molecule: O=c1[nH]cc(F)c(=O)[nH]1 [5-FU, 5-fluorouracil]
- EC50 [2, 5]: 3000 nM
- Sensitization by expression of YAPS6A ([2]; suppression of the Hippo pathway, high cell density): sensitized
- EC50 [3, 7]: > 10000 nM
- EC50 [3, 8]: 350 nM
- Efficacy in inhibiting cell growth when the Hippo pathway was inhibited [1]: increased efficacy in inhibiting cell growth

Molecule: CC[C@@]1(O)C(=O)OCc2c1cc1n(c2=O)Cc2cc3ccccc3nc2-1 [Camtothecin, Camptothecin]
- EC50 [2, 5]: 9 nM
- EC50 [2, 6]: 6 nM
- EC50 [3, 7]: 15 nM
- EC50 [3, 8]: 5.2 nM
- Efficacy in inhibiting cell growth when the Hippo pathway was inhibited [1]: increased efficacy in inhibiting cell growth
- Dependence of cellular response on cell crowding [4]: weak or no correlation with cell density
- Density dependence of efficacy [4]: density-dependent

Molecule: CCc1c2c(nc3ccc(OC(=O)N4CCC(N5CCCCC5)CC4)cc13)-c1cc3c(c(=O)n1C2)COC(=O)[C@]3(O)CC [Irrenotecan]
- EC50 [2, 9]: 1650 nM
- EC50 [2, 10]: 1700 nM
- EC50 [3, 11]: 8500 nM
- EC50 [3, 12]: 1070 nM
- Efficacy in inhibiting cell growth when the Hippo pathway was inhibited [1]: increased efficacy in inhibiting cell growth; also recorded: particularly significant inhibitory activity

Molecule: CNC(=O)c1ccc(N2C(=S)N(c3ccc(C#N)c(C(F)(F)F)c3)C(=O)C2(C)C)cc1F [enzalutamide]
- Efficacy in inhibiting cell growth when the Hippo pathway was not inhibited (Panc02.13 cells): effective in preventing cancer cell growth independent of the state of Hippo-YAP signaling pathway activity; also recorded: efficacious in inhibiting cell growth

Molecule: COC(=O)C[C@](O)(CCCC(C)(C)O)C(=O)O[C@@H]1C(OC)=C[C@]23CCCN2CCc2cc4c(cc2[C@H]13)OCO4 [omacetaxine mepesuccinate]
- Efficacy in inhibiting cell growth when the Hippo pathway was not inhibited (Panc02.13 cells): effective in preventing cancer cell growth independent of the state of Hippo-YAP signaling pathway activity; also recorded: efficacious in inhibiting cell growth

Molecule: CC(C)C[C@H](NC(=O)[C@H](CCc1ccccc1)NC(=O)CN1CCOCC1)C(=O)N[C@@H](Cc1ccccc1)C(=O)N[C@@H](CC(C)C)C(=O)[C@@]1(C)CO1 [carfilzomib]
- Inhibition in high density growth conditions (Panc02.13 cells): significant inhibition
- Efficacy in inhibiting cell growth when the Hippo pathway was not inhibited (Panc02.13 cells): effective in preventing cancer cell growth independent of the state of Hippo-YAP signaling pathway activity; also recorded: efficacious in inhibiting cell growth

Molecule: Nc1nc2nc[nH]c2c(=S)[nH]1 [tioguanine]
- Efficacy in inhibiting cell growth when the Hippo pathway was inhibited [1]: increased efficacy in inhibiting cell growth

Molecule: Cc1ccc(NC(=O)c2ccc(CN3CCN(C)CC3)cc2)cc1Nc1nccc(-c2cccnc2)n1 [imatinib]
- Efficacy in inhibiting cell growth when the Hippo pathway was inhibited [1]: increased efficacy in inhibiting cell growth

Molecule: CC(=O)O[C@H]1C(=O)[C@@]2(C)[C@H]([C@H](OC(=O)c3ccccc3)[C@]3(O)C[C@H](OC(=O)[C@H](O)[C@@H](NC(=O)c4ccccc4)c4ccccc4)C(C)=C1C3(C)C)[C@]1(OC(C)=O)CO[C@@H]1C[C@@H]2O [Paclitaxel]
- EC50 [2, 6]: 3 nM
- EC50 [3, 7]: 1670 nM
- EC50 [3, 8]: 3 nM
- Dependence of cellular response on cell crowding [4]: weak or no correlation with cell density
- Density dependence of efficacy [4]: largely density independent

Molecule: C1CN1c1nc(N2CC2)nc(N2CC2)n1 [triethylenemelamine]
- Efficacy in inhibiting cell growth when the Hippo pathway was not inhibited (Panc02.13 cells): demonstrated efficacy at higher doses

Molecule: Epothilone
- EC50 [2, 9]: 767 nM
- EC50 [2, 10]: < 1 nM
- EC50 [3, 11]: 20 nM
- EC50 [3, 12]: < 1 nM

Molecule: O=C1[O][Pt]2([NH][C@@H]3CCCC[C@H]3[NH]2)[O]C1=O [Oxaliplatin]
- EC50 [2, 9]: 3180 nM
- EC50 [2, 10]: 5890 nM
- EC50 [3, 11]: 5200 nM
- EC50 [3, 12]: 937 nM
- Dependence of cellular response on cell crowding [4]: weak or no correlation with cell density
- Density dependence of efficacy [4]: largely density independent

Molecule: C/C(=C\c1csc(C)n1)[C@@H]1C[C@@H]2O[C@]2(C)CCC[C@H](C)[C@H](O)[C@@H](C)C(=O)C(C)(C)[C@@H](O)CC(=O)N1 [ixabepilone]
- Efficacy in inhibiting cell growth when the Hippo pathway was inhibited [1]: increased efficacy in inhibiting cell growth

Molecule: Cc1c2oc3c(C)ccc(C(=O)N[C@@H]4C(=O)N[C@H](C(C)C)C(=O)N5CCC[C@H]5C(=O)N(C)CC(=O)N(C)[C@@H](C(C)C)C(=O)O[C@@H]4C)c3nc-2c(C(=O)N[C@@H]2C(=O)N[C@H](C(C)C)C(=O)N3CCC[C@H]3C(=O)N(C)CC(=O)N(C)[C@@H](C(C)C)C(=O)O[C@@H]2C)c(N)c1=O [dactinomycin] (I: T[dV]P[Sar][NMeV] / II: T[dV]P[Sar][NMeV]; ester I:1-I:C, II:1-II:C; linker I:N-II:N via Actinocin(9to1))
- Inhibition in high density growth conditions (Panc02.13 cells): significant inhibition
- Efficacy in inhibiting cell growth when the Hippo pathway was not inhibited (Panc02.13 cells): effective in preventing cancer cell growth independent of the state of Hippo-YAP signaling pathway activity; also recorded: efficacious in inhibiting cell growth
